Measured values as given in PMC11279465, “Dual Inhibitors of P-gp and Carbonic Anhydrase XII (hCA XII) against Tumor Multidrug Resistance with Piperazine Scaffold” (Molecules, 2024).

Columns and labels:
[1] = system: HT29 cells; assay: Intrinsic cytotoxicity (MTT); type: cell-based, human; details: compound alone at 1 µM; parental HT29; 48 h
Method: (§1) All compounds were preliminarily studied to evaluate their intrinsic cytotoxicity at different concentrations (from 10 nM to 50 µM) in the parental HT29 and A549 and the resistant HT29/DOX and A549/DOX cells using the MTT assay.
(§2) The intrinsic toxicity of the studied compounds was determined by an MTT assay. K562 and K562/DOX were exposed for 72 h with compounds at 1 and 3 µM concentrations while HT29, A549, HT29/DOX and A549/DOX cells were incubated for 48 h with compounds used at different concentrations (from 10 nM to 50 µM). The percentage of growth compared to the untreated control was transformed into histograms with the GraphPad Prism 5 program.

[2] = system: A549 cells; assay: Intrinsic cytotoxicity (MTT); type: cell-based, human; details: compound alone at 1 µM; parental A549; 48 h
Method: as §1, §2

[3] = system: HT29/DOX cells; assay: Intrinsic cytotoxicity (MTT); type: cell-based, human; details: 48 h; for toxicity: compound alone at 1 µM, HT29/DOX; for more cytotoxic in resistant cells than in parental sensitive cells: compound alone, 1 µM, HT29/DOX vs HT29
How it was run: (§3)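 Resistant HT29/DOX and A549/DOX cells exposed for 48 h to compounds from 10 nM to 50 µM; viability measured by MTT. Growth expressed as percentage of untreated control.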

[4] = system: A549/DOX cells; assay: Intrinsic cytotoxicity (MTT); type: cell-based, human; details: 48 h; for toxicity: compound alone at 1 µM, A549/DOX; for more cytotoxic in resistant cells than in parental sensitive cells: compound alone, 1 µM, A549/DOX vs A549
How it was run: as §3

[5] = system: HT29/DOX cells; assay: ROS measurement (DCFDA-AM); type: cell-based, human; details: 1 µM
Method: (§4) Selected compounds have been tested for their cytotoxic activity at 24 h on HT29/DOX and A549/DOX cells and on the parental HT29 and A549 cells by MTT assay. To evaluate the mechanisms involved in CS, reactive oxygen species (ROS) were measured using the fluorescent probe 5-(and-6)-chloromethyl-2′,7′-dichlorodihydro-fluorescein diacetate-acetoxymethyl ester (DCFDA-AM), as previously reported. The results were expressed as nmol/mg cellular proteins. The amount of TBARS, as an index of lipoperoxidation, was measured with the Lipid Peroxidation (4-HNE) Assay Kit (Abcam, Cambridge, UK) that evaluates the 4-hydroxy-nonenale, one of the TBARS Results were expressed as nmoles/mg mitochondrial protein.

[6] = system: A549/DOX cells; assay: ROS measurement (DCFDA-AM); type: cell-based, human; details: 1 µM
Method: as §4

[7] = target: T1, P-gp (Homo sapiens, UniProt P08183); assay: P-gp ATPase activity (HT29/DOX cells); type: biochemical; parameters: endogenous in cells; host or cells: HT29/DOX (A27) and A549/DOX (A28); details: 1 µM, compared with HT29
Method: (§5) Plasma-membrane vesicles enriched with P-gp were prepared by sequential centrifugation as detailed previously. The ATPase activity of immunopurified P-gp was evaluated spectrophotometrically by measuring the absorbance of the phosphate hydrolyzed from ATP at 620 nm, using a Synergy HT Multi-Detection Microplate Reader (Bio-Tek Instruments). The absorbance was converted into μmol hydrolyzed phosphate/min/mg proteins, according to the titration curve previously prepared.

[8] = target: T1, P-gp; assay: P-gp ATPase activity (A549/DOX cells); type: biochemical; parameters: endogenous in cells; host or cells: HT29/DOX (A27) and A549/DOX (A28); details: 1 µM, compared with A549
Method: as §5

[9] = target: T2, hCA XII (Homo sapiens, UniProt O43570); assay: CA inhibition, stopped-flow CO2 hydrase assay; type: biochemical; details: stopped-flow technique; incubation time 6 h; mean of 3 assays
T2 construct: made in house
How it was run: (§6)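 Stopped-flow CO2 hydration used saturated CO2 solutions at 25 °C as substrate. Enzyme and inhibitor (10 μM stocks in DMSO-water, diluted down to 0.01 nM) were preincubated for 6 h at room temperature.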

[10] = target: T3, hCA I (Homo sapiens, UniProt P00915); assay: CA inhibition, stopped-flow CO2 hydrase assay; type: biochemical; details: stopped-flow technique; incubation time 6 h; mean of 3 assays
T3 construct: made in house
How it was run: as §6

[11] = target: T4, hCA IX (Homo sapiens, UniProt Q16790); assay: CA inhibition, stopped-flow CO2 hydrase assay; type: biochemical; details: stopped-flow technique; incubation time 6 h; mean of 3 assays
T4 construct: made in house
How it was run: as §6

[12] = target: T5, hCA II (Homo sapiens, UniProt P00918); assay: CA inhibition, stopped-flow CO2 hydrase assay; type: biochemical; details: stopped-flow technique; incubation time 6 h; mean of 3 assays
T5 construct: made in house
How it was run: as §6

[13] = system: K562/DOX cells; assay: Doxorubicin cytotoxicity enhancement assay (MTT); type: cell-based, human; details: 72 h
How it was run: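 K562/DOX cells exposed 72 h to varying doxorubicin concentrations plus 1 or 3 µM test compound. Viability by MTT absorbance, expressed as percentage of untreated control cells.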

T1 sequence (P08183 whole entry): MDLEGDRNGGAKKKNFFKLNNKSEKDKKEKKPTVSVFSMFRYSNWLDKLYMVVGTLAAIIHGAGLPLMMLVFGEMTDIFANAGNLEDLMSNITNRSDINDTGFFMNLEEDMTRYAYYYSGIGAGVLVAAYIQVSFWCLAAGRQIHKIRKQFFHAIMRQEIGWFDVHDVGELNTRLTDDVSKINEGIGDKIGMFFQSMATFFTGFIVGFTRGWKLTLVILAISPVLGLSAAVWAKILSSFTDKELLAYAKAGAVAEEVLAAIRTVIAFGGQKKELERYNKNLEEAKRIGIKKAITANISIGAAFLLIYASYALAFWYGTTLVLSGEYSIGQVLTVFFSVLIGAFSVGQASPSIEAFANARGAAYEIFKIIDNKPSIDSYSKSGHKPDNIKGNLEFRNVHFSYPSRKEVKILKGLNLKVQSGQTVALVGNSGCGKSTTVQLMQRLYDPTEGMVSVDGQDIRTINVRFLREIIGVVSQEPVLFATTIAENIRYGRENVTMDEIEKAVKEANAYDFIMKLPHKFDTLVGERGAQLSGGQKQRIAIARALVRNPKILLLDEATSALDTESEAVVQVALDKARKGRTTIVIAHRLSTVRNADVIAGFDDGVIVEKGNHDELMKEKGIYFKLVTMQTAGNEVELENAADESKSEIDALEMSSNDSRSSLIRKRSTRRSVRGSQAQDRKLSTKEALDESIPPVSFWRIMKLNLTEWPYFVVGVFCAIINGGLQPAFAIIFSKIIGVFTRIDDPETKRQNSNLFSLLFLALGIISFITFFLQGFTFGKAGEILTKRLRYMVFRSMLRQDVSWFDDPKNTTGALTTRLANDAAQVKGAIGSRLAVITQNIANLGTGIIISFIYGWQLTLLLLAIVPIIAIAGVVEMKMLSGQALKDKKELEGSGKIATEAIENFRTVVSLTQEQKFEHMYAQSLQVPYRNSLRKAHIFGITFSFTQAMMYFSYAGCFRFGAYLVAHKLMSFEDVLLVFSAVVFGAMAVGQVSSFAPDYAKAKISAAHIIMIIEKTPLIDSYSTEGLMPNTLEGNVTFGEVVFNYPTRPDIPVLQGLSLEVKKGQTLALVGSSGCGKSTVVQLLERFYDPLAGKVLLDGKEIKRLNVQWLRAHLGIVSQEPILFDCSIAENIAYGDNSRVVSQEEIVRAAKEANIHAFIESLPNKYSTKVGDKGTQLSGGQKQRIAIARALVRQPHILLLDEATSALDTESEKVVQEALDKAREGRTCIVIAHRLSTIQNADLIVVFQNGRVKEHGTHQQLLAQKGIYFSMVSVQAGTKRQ
T2 sequence (O43570 25-354): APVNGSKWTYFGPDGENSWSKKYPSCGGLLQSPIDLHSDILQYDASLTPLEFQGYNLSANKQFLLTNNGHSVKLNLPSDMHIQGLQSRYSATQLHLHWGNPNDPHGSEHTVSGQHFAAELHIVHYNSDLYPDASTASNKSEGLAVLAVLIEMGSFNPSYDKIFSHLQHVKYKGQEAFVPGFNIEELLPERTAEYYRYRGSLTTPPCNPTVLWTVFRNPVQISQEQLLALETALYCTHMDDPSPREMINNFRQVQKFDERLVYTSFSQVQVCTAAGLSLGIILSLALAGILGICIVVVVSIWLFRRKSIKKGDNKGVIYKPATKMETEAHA
T3 sequence (P00915 whole entry): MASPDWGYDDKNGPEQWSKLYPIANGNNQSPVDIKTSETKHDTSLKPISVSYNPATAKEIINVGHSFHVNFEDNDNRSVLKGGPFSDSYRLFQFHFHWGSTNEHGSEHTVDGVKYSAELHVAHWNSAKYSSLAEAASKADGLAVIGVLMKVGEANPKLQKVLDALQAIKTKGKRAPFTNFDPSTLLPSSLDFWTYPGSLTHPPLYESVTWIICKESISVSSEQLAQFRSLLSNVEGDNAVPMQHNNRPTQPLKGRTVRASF

| Structure (SMILES) | toxicity [1] | toxicity [2] | toxicity [3] | more cytotoxic in resistant cells than in parental sensitive cells [3] | toxicity [4] | more cytotoxic in resistant cells than in parental sensitive cells [4] | increase of ROS levels compared to the control [5] | increase of ROS levels compared to the control [6] | P-gp catalytic activity [7] | P-gp catalytic activity [8] | Ki [9] | Ki [10] | Ki [11] | Ki [12] | RF (Reversal Fold: IC50 of doxorubicin alone / in presence of modulator) ([13]; compound at 1 µM) | RF (Reversal Fold: IC50 of doxorubicin alone / in presence of modulator) ([13]; compound at 3 µM) |
| --- | --- | --- | --- | --- | --- | --- | --- | --- | --- | --- | --- | --- | --- | --- | --- | --- |
| COc1ccc(C(CCCN2CCN(CCCCOc3ccc4ccc(=O)oc4c3)CC2)c2ccc(OC)cc2)cc1 [Compound 27, 7-(4-(4-(4,4-Bis(4-methoxyphenyl)butyl)piperazin-1-yl)butoxy)-2H-chromen-2-one] | ≥ 35% | ≥ 35% | ≥ 35% | 15%-20% | ≥ 35% | 15%-20% | 3–4 times | 7–8 times | lowered the catalytic efficacy of P-gp in resistant cells to levels comparable to drug-sensitive HT29 and A549 cells | lowered the catalytic efficacy of P-gp in resistant cells to levels comparable to drug-sensitive HT29 and A549 cells | 0.0921 µM | > 10 µM | 0.145 µM | > 10 µM | 8.1 | – |
| COc1ccc(C(CCCN2CCN(CCCOc3ccc4oc(=O)ccc4c3)CC2)c2ccc(OC)cc2)cc1 [Compound 32, 6-(3-(4-(4,4-Bis(4-methoxyphenyl)butyl)piperazin-1-yl)propoxy)-2H-chromen-2-one] | ≥ 35% | ≥ 35% | ≥ 35% | 15%-20% | ≥ 35% | 15%-20% | 3–4 times | 7–8 times | lowered the catalytic efficacy of P-gp in resistant cells to levels comparable to drug-sensitive HT29 and A549 cells | lowered the catalytic efficacy of P-gp in resistant cells to levels comparable to drug-sensitive HT29 and A549 cells | 0.0715 µM | > 10 µM | 0.0896 µM | > 10 µM | 3.6 | 7.9 |
